Laboratory results from patent US8211883B2, “Topical delivery of phthalocyanines” (priority 2004, dated 2012).
Structures can show the parent of a compound that is named as a salt.

Key:
[1] = tested on: Chinese hamster V79-379 lung fibroblasts; assay: Uptake of phthalocyanines into V79 cells
Procedure: Chinese hamster V79-379 lung fibroblasts were grown in monolayer culture in McCoy's 5A medium (Gibco Laboratories, Grand Island, N.Y.) augmented with 10% calf serum and buffered with 20 mM HEPES (pH 7.4).
Total uptake was determined by scraping the phthalocyanine-treated monolayer, collecting the cells on a glass-fiber filter, and extracting the phthalocyanine in ethanol, as previously described by Ramakrishnan, et al., 1989. (Ramakrishnan, N., M. E. Clay, M. F. Horng, A. R. Antunez, & H. H. Evans, “DNA Lesions and DNA Degradation in Mouse Lymphoma L5178Y Cells After Photodynamic Treatment Sensitized by Chloroaluminum Phthalocyanine”, Photochem. Photobiol, in press, 1989). The amount of drug was determined by absorption at 674 nm and expressed relative to the number of cells, as measured in a Coulter cell counter on an aliquot of the cell population. Controls included cells not treated with drug, medium alone, and drug-containing medium without cells.
The cells were treated with 1 μM AlPcCl (from Eastman Kodak, Rochester, N.Y.) or with phthalocyanine compositions I-VI (0.5-1.0 μM final concentration in the medium) for 18 hours by adding the appropriate volume of a 1.0 mM stock solution in dimethylformamide (DMF) to the culture medium. The growth medium was replaced with 4 mL Hank's balanced salt solution (HBSS), and the cells were irradiated. The light source was a 500 W tungsten-halogen lamp located approximately 29 inches below the surface of a glass exposure tray. The visible light administered to the cells was filtered to allow passage of only that portion of the visible spectrum above 600 nm (Lee Primary red filter No. 106, Vincent Lighting, Cleveland, Ohio). The fluence rate was approximately 0.074 kJ/m^2/s at the level of the cell monolayer.
V79 cells Chinese hamster lung fibroblasts were cultured using the cell culture methods described above. The phthalocyanines listed in table 2 were added to the cultures typically at concentrations of 1 μM, 2 μM, and/or 4 μM and incubated for 18 hours, after which aliquots of the cells were counted and other aliquots were collected on a glass fiber filter. When the filters were dry, the phthalocyanines were extracted into ethanol and the absorption determined at the peak wavelength, usually 668 nm. Values were converted to nmoles taken up by 10^6 cells, using an extinction coefficient of 2.93×10^5.

[2] = tested on: Chinese hamster V79-379 lung fibroblasts; assay: Growth delay of V79 cultures after phthalocyanine and red light; assay type: cell-based; settings: V79 cells; for Growth Delay (12 kj/m^2), Efficiency Relative to 1 μM (AlPcCl): 18 hours, 12 kJ/m^2 red light
Procedure: At the time of light exposure, there were approximately 1.5×10^5 cells per 25 cm^2 flask. Following irradiation, the HBSS was replaced by 10 mL of fresh complete growth medium, and the cultures were returned to the 37° C. incubator. At various times before and after irradiation, duplicate cultures were trypsinized and counted. Controls included untreated cells and cells treated with light alone or drug alone. In addition, in each experiment, the drug to be tested was compared to a standard treatment, i.e. 1 μM AlPcCl for 18 hours followed by 12 kJ/m^2 light.
The inhibition of V79 culture growth was measured during a three day period following red light irradiation (12 kJ/m^2) of phthalocyanine-pretreated cells. With each of the active compounds, as well as with AlPcCl, there was an initial decrease in cell density, as dead cells became detached from the monolayer. Thereafter, the cell number per flask increased, as living cells grew and divided. The time for the cell density to recover to the level at the time of light exposure was considered the growth delay. […] The ratio of the growth delay for the test photosensitizer and the growth delay for AlPcCl measured in the same experiment is recorded in Table 1. There was less inhibition of culture growth when cells were exposed to compounds III, V, or VI as expected from the poor cellular uptake of these drugs.

[3] = tested on: Chinese hamster V79-379 lung fibroblasts; assay: Clonogenic cell survival of V79 cells after photodynamic treatment; assay type: cell-based; settings: for CF10(AIPcCI)/CF10 (Pc) / F10(AIPcCI)/F10 (Pc): 1.0 μM; for CF10(AIPcCI)/CF10 (Pc): CF10 = product of intracellular concentration and fluence reducing survival to 10%; for F10(AIPcCI)/F10 (Pc): F10 = fluence reducing cell survival to 10%
Procedure: Cells were irradiated at a density of approximately 2×10^6 per 25 cm^2 flask. Immediately after irradiation, the cell monolayer was treated with trypsin, and appropriate aliquots were plated in triplicate to give 100 to 200 colonies in each 10-cm Petri dish. Cell survival was determined by the ability of the cells to form colonies containing at least 50 cells. The response of cells treated with 1 μM AlPcCl and light was compared in each experiment.
Photocytotoxicity of the phthalocyanines compounds I to VI was also assessed by clonogenic assay (Table 1, FIG. 1). In all experiments, 1 μM AlPcCl was included for comparison purposes. From the survival curves (FIG. 1), the fluence reducing the cell survival to 10% (F10) was obtained. The ratio of the F10 for AlPcCl and the F10 for the test compound is recorded in Table 1. Compounds I and II appear to be nearly as efficient photosensitizers as AlPcCl, while compound IV (assayed at half the concentration) was almost twice as efficient as the standard AlPcCl. […] However, in spite of the low efficiency of compound V in inhibiting cell growth, survival measurements were made for this compound, because it was taken up into V79 cells somewhat more efficiently than compounds III and VI.
In order to take differences in cellular uptake into consideration in the assessment of the relative efficiency of these phthalocyanines as photosensitizers of V79 cells, the survival data were replotted against the product of intracellular phthalocyanine concentration and light fluence (FIG. 2). From these curves, the product of intracellular concentration and light fluence reducing survival to 10% (CF10) was obtained, and comparisons of the values for AlPcCl and the test compounds are recorded in Table 1. By this and the other criteria, compound IV appears to be the most efficient photosensitizer. However, when consideration is given to the lesser cell uptake of compound V, it appears to be about as strong a photosensitizer as compound IV.
Using the cell culture methods described above, V79 cells Chinese hamster lung fibroblasts were treated with either 0.5 or 1.0 μM of the phthalocyanines listed in Table 3. About 18 hours thereafter, the cells were irradiated with increasing doses of 675 nm broad band red light from a 500 W tungsten-halogen lamp fitted with a 600 nm high pass filter, to determine the light dosage that would kill 90% of the phthalocyanine treated cells. Where 90% of the cells were not killed, the maximum percent of cells killed were determined, (expressed as % survival) and the related light dosage recorded.

L5178Y cells = assay: Induction of apoptosis (DNA ladder) in L5178Y cells after PDT; assay type: cell-based, Mouse; settings: for C × F Ld90, Minimum Demonstrated Condition to Induce Apoptosis: product of concentration and fluence
Procedure: The cells were used while in exponential growth. Stock solutions of either 0.5 or 1 mM of PcIV, PcXII, PcX, PcXVIII were prepared in dimethylformamide unless otherwise indicated and added to the 10 mL medium at a rate of 1 μL per mL. After allowing 18 hours for uptake of the phthalocyanine into the cells, the flasks containing the cultures were placed on a glass exposure tray above a 500-W tungsten-halogen lamp. The exposure tray was fitted with a 600-nm high-pass filter. Flasks were exposed to various fluences of red light (up to 30 kJ/m^2) at a fluence rate of approximately 74 W/m^2). After irradiation, the cells were collected by centrifugation.
The aliquots were plated in sufficient numbers to produce 50-200 colonies. The dishes were kept in an incubator at 37° C. in an atmosphere of 5% CO2 and 95% air for 10-14 days to allow viable cells to form colonies. Colonies were counted by eye. […] The plating efficiencies of the treated cells are normalized to the plating efficiencies of control cells in each experiment.
Cells were treated with various concentrations of the compounds listed in the table and various light fluences. DNA gels were prepared and examined for the characteristic “ladder” pattern of DNA fragments. For each Pc, the minimum total PDT dose tested (calculated as the product of the minimum phthalocyanine concentration and the minimum fluence) which produced visible DNA fragments is recorded. […] PcXVIII was also added at 0.5 and 1.0 μM.

[4] = tested on: RIF-1 (radiation-induced fibrosarcoma) tumors; assay: PDT of RIF-1 implanted tumors; assay type: in vivo, C3H/HeN mice; set-up: key to Tumor Responses at 24 hours: complete: no evidence of any tumor mass in any animal; only the scar from the photodynamic therapy was evident.; near complete: evidence of any tumor mass in four or five animals; only some tumor mass in one or two animals.; substantial: a significant tumor shrinkage occurred in all animals. In some animals the tumor response was complete, yet in others the response was not complete.; moderate: some tumor shrinkage was evident in some animals. In animals with some tumor shrinkage, scar formation was evident.; slight: some tumor decrease occurred in one or two mice; settings: 1 mg/kg in corn oil, 675 nm
Procedure: The relative effectiveness at reducing tumor volume of selected phthalocyanine compounds at a given dosage was compared in vivo. RIF-1, i.e., radiation-induced fibrosarcoma, tumors were implanted into the backs of C3H/HeN mice. One tumor was implanted per mouse. Each of the phthalocyanine compounds listed in Table 7 was sonicated and vortexed in corn oil to produce a suspension. When the tumors reached […] in diameter and 2-3 mm in thickness, each mouse received 1 mg/kg in 0.1 mL of the corn oil, of the phthalocyanine suspension. For comparison, select mice received a conventional photosensitizer; either 5 mg/kg of chloroaluminum phthalocyanine tetrasulfonate, herein also referred to as “AlPcTS” in phosphate buffered saline or 5 mg/kg of Photofrin®-II in 5% dextrose. Twenty-four hours after the photosensitizers were administered, the tumors were irradiated with visible radiation delivered by an argon-pumped dye laser. The mice that received a phthalocyanine photosensitizer received light having a wavelength of 675 nm and the mice that received the Photofrin® II photosensitizer received light having a wavelength of 630 nm. Each tumor received 135 J/cm^2 of radiation. Tumor size was measured every day using calipers. The initial tumor volume was 50±10 mm^3. Tumor volume was calculated according to the hemiellipsoid model by the formula: V=½(4π)/3×(½×(w/2))×h
• complete—no evidence of any tumor mass in any animal; only the scar from the photodynamic therapy was evident. • near complete—evidence of […] in four or five animals; only some tumor mass in one or two animals. • substantial—a significant tumor shrinkage occurred in all animals. In some animals the tumor response was complete, yet in others the response was not complete. • moderate—some tumor shrinkage was evident in some animals. In animals with some tumor shrinkage, scar formation was evident. • slight—some tumor decrease occurred in one or two mice.

[5] = tested on: human skin keratome biopsies; assay: Penetration of topically applied PcIV and salts into human skin, confocal fluorescence microscopy; assay type: in vitro ADME
Procedure: Human skin absorption of PcIV was analyzed by fluorescence confocal microscopy. PcIV fluorescence, upon activation with a HeNe laser at 633 nm, was visualized using a 650 long pass filter. Briefly, 0.4 mm thick human keratomes were removed from the gluteal region of healthy volunteers and divided into 1.5 cm×1.5 cm squares of skin. Upon application of PcIV to the epidermis in a vehicle of ethanol and propylene glycol, visualization of penetration of PcIV was achieved by fluorescence. Pc 4 was then prepared as PcIV-pyruvate and PcIV-HCl and applied in the same vehicle as Pc 4 to the epidermis. Three concentrations, namely, 0.1 mg/mL, 0.05 mg/mL, and 0.01 mg/mL were tested per PcIV formulation. Skin was incubated at 37° C. for 1, 2, and 4 hours, along with vehicle controls. […] Maximum PcIV fluorescence was detectable using laser transmission of 3% for the 0.1 mg/mL and 30% for the 0.01 mg/mL. Both PcIV.pyruvate and PcIV.HCl however could be visualized with a laser transmission of 2-3% for the 0.1 mg/mL and 7-9% for the 0.01 mg/mL concentrations.
The ability of PcIV and the newly prepared PcIV salts (HCl and pyruvate) to penetrate into the epidermis of keratome derived biopsies was examined. The time course of penetrance as well as the effect of dose of the PcIV compounds were evaluated. PcIV and the PcIV.HCl and PcIV.pyruvate salts were resuspended in ethanol (100%, 1 part PcIV, 499 parts ethanol) and then diluted to final concentrations in a 30% Propylene Glycol 70% Ethanol mixture.
Keratome biopsies of normal skin were obtained from normal volunteers after written consent according to UHHS IRB protocol # 05-95-03. To date, seven experiments have been performed. The range of age for volunteers was 20-40 yrs. Individuals represented Fitzpatrick skin types between I-III. Skin biopsies were held in PBS following the keratome procedure until processed for PcIV Application (less than 1 hr). The keratome skin samples (1.5 cm^2) were overlayed onto sterile gauze in 80 mm tissue culture petri dishes epidermal side down. PcIV compounds were then applied to the corners of the sterile gauze and allowed to “wick” through the gauze and contact the epidermis of the skin for the indicated times. Following the incubation, the tissue was removed from the gauze and washed three times in phosphate buffered saline and held, in PBS, until analysis by confocal microscopy. Confocal images were acquired using a 20×N.A. 0.5 water immersion objective on a Zeiss 510 confocal microscope. PcIV fluorescence was elicited using a 633 nm wavelength for excitation, and collected with a 633 nm dichroic mirror and 650 nm long-pass filter.

## [Cl][Al]1[n]2c3c4ccccc4c2N=C2N=C(N=c4c5ccccc5c([n]41)=NC1=NC(=N3)c3ccccc31)c1ccccc12 [AlPcCl, chloroaluminum phthalocyanine, reference compound]
[1]; V79 cells, 1.0 μM, 18 hours
  Uptake, Efficiency Relative to 1 μM (AlPcCl): 1.0
[1]; V79 cells, 1 μM, mean±S. D., 25 determinations
  uptake: 0.723±0.172 nmole/10^7 cells
[2]; 1 μM for 18 hours and 12 kj/m^2 light
  growth delay: approximately 24 hours
[2]
  Growth Delay (12 kj/m^2), Efficiency Relative to 1 μM (AlPcCl): 1.0
[3]
  CF10(AIPcCI)/CF10 (Pc): 1.0
  F10(AIPcCI)/F10 (Pc): 1.0

## CN(C)CCC[Si](C)(C)[O][Al]1[n]2c3c4ccccc4c2N=C2N=C(N=c4c5ccccc5c([n]41)=NC1=NC(=N3)c3ccccc31)c1ccccc12 [Compound I, AlPcOSi(CH3)2(CH2)3N(CH3)2]
[2]
  Growth Delay (12 kj/m^2), Efficiency Relative to 1 μM (AlPcCl): 2.1
[3]
  CF10(AIPcCI)/CF10 (Pc): 0.51
  F10(AIPcCI)/F10 (Pc): 0.94

## C[Si](C)(CCCCNS(C)(=O)=O)O[Si]1(O)n2c3c4ccccc4c2N=C2N=C(N=c4c5ccccc5c(n41)=NC1=NC(=N3)c3ccccc31)c1ccccc12 (stereo not shown) [IX, HOSiPcOSi(CH3)2(CH2)4NHSO2CH3]
[1]; 1 μM, 18 hours
  Uptake Into V79 Cells, 1 μM: 0.1 ± 0.1 n Moles/10^6 cells
[1]; 4 μM, 18 hours
  Uptake Into V79 Cells, 4 μM: 1.8 ± 0.8 n Moles/10^6 cells
[1]; V79 cells, average of all data, asterisk: listed value is for 1 μM, average would be higher
  n Moles/10^6 Cells/μM (composite uptake value): 0.3 n Moles/10^6 Cells/μM
[3]; 0.5 μM, at 9 kj/m^2
  Maximum Effect (% survival at kj/m^2): 44% at 9
L5178Y cells; 0.3 μM
  Fluence, Minimum Demonstrated Condition to Induce Apoptosis: 12.0 kJ/m^2
  C × F Ld90, Minimum Demonstrated Condition to Induce Apoptosis: 3.6 kJ/m^2
L5178Y cells; 0.5 μM
  Fluence, Minimum Demonstrated Condition to Induce Apoptosis: 8.0 kJ/m^2
  C × F Ld90, Minimum Demonstrated Condition to Induce Apoptosis: 4.0 kJ/m^2
L5178Y cells; 1.0 μM
  Fluence, Minimum Demonstrated Condition to Induce Apoptosis: 12.0 kJ/m^2
  C × F Ld90, Minimum Demonstrated Condition to Induce Apoptosis: 12.0 kJ/m^2
[4]; 135 J/cm^2, light 24 h after dosing
  Tumor Responses at 24 hours: near complete
[4]; 135 J/cm^2, controls 4 days
  Doubling Time of Initial Tumor Volume after PDT: 11 days

## CN(C)CCC[Si](C)(C)O[Si]1(O)n2c3c4ccccc4c2N=C2N=C(N=c4c5ccccc5c(n41)=NC1=NC(=N3)c3ccccc31)c1ccccc12 (stereo not shown) [PcIV-HCl, HOSiPcOSi(CH3)2(CH2)3N(CH3)2(HCl)]
[5]
  effect of salt formulation on penetration through the skin: does not hinder the penetration
